For 23 compounds, T/C results are on record in PubChem BioAssay AID296 (DTP/NCI, 2004).

The experiment relates to MX-1 breast xenograft, nude mice, tumor weight T/C. Briefly: NCI In Vivo Anticancer Drug Screen. Data for tumor model Human Mammary Carcinoma MX-1 Xenograft (intrarenal inoculation) in NU/NU Swiss (nude) mice. Particulars: endpoint: mean tumor weight change, higher = larger tumour. In short, it runs like this:
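Compound dosed to mice with transplantable tumor; vehicle group as control. Endpoint survival or tumour size, reported as T/C.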
In general terms: A xenograft is tissue or cells of one species grown in another, often human tumour cells in immunodeficient mice.

Setting [1] is: dose: 300.0 mg/kg/injection, schedule: Q04DX003 (sc), vehicle: Klucel (hydroxypropylcellulose) (HPC).
The mark [2] stands for this setting: dose: 300.0 mg/kg/injection, schedule: Q04DX003 (sc), vehicle: saline with Tween-80.
[3] abbreviates: dose: 600.0 mg/kg/injection, schedule: Q04DX003 (sc), vehicle: saline with Tween-80.
The mark [4] stands for this setting: dose: 1200.0 mg/kg/injection, schedule: Q04DX003 (sc), vehicle: saline with Tween-80.
[5] abbreviates: dose: 2400.0 mg/kg/injection, schedule: Q04DX003 (sc), vehicle: saline with Tween-80.

Inconclusive results are not listed. Where a SMILES comes first, the peptide text is derived from it. The star is where a group is joined. Trt = c1ccc(C(c2ccccc2)(c2ccccc2)*)cc1; Cbz = O=C(OCc1ccccc1)*

Take `COC(=O)C[C@](O)(CCC(C)(C)O)C(=O)O[C@@H]1C(OC)=C[C@]23CCCN2CCc2cc4c(cc2[C@H]13)OCO4`: the T/C runs as follows: (dose: 0.15 mg/kg/injection, schedule: Q04DX003 (sc), vehicle: saline) 123 % of control; (dose: 0.31 mg/kg/injection, schedule: Q04DX003 (sc), vehicle: saline) 93 % of control; (dose: 0.63 mg/kg/injection, schedule: Q04DX003 (sc), vehicle: saline) 119 % of control; (dose: 1.25 mg/kg/injection, schedule: Q04DX003 (sc), vehicle: saline) 97 % of control.
Take `C[C@H](N)C(=O)N[C@@H]1[C@H]2C(=C(O)C[C@@H](O)[C@@H]2O)C(=O)O[C@]1(C)C(Cl)Cl`: the T/C is, setting by setting: (dose: 1.5 mg/kg/injection, schedule: Q04DX003 (sc), vehicle: Klucel (hydroxypropylcellulose) (HPC)) 153 % of control; (dose: 6.0 mg/kg/injection, schedule: Q04DX003 (sc), vehicle: Klucel (hydroxypropylcellulose) (HPC)) 92 % of control.
For `O=c1s[se]c2ccccc12`, the T/C (dose: 150.0 mg/kg/injection, schedule: Q04DX003 (sc), vehicle: Klucel (hydroxypropylcellulose) (HPC)) was 55 % of control and the T/C under setting [1] was 55 % of control.
Consider `CCCCOC(=O)/C=C(\Br)C(=O)OCCCC`, for which the T/C by setting is: (dose: 50.0 mg/kg/injection, schedule: Q01DX010 (sc), vehicle: saline with Tween-80) 102 % of control; (dose: 100.0 mg/kg/injection, schedule: Q01DX010 (sc), vehicle: saline with Tween-80) 68 % of control; (dose: 200.0 mg/kg/injection, schedule: Q01DX010 (sc), vehicle: saline with Tween-80) 191 % of control; (dose: 400.0 mg/kg/injection, schedule: Q01DX010 (sc), vehicle: saline with Tween-80) 205 % of control.
In the case of `CC[N+](CC)(CC)CC`, the T/C (dose: 1.5 mg/kg/injection, schedule: Q01DX010 (sc), vehicle: saline with Tween-80) is 65 % of control and the T/C (dose: 3.0 mg/kg/injection, schedule: Q01DX010 (sc), vehicle: saline with Tween-80) is 103 % of control.
As to `CC1(C)OCC(CO)(Nc2nc(N3CC3)nc(N3CC3)n2)CO1`, the T/C (dose: 2.5 mg/kg/injection, schedule: Q01DX010 (sc), vehicle: saline) is -75 % of control.
`COC(=O)C(CSC(c1ccccc1)(c1ccccc1)c1ccccc1)NC(=O)C(CC(N)=O)NC(=O)OCc1ccccc1` (stereo not drawn) (Cbz-Asn-Cys(Trt)-OMe; configuration not given here): the T/C (dose: 300.0 mg/kg/injection, schedule: Q04DX003 (sc), vehicle: distilled water + Tween-80) is 97 % of control; the T/C (dose: 600.0 mg/kg/injection, schedule: Q04DX003 (sc), vehicle: distilled water + Tween-80) is 77 % of control; the T/C (dose: 1200.0 mg/kg/injection, schedule: Q04DX003 (sc), vehicle: distilled water + Tween-80) is 78 % of control; the T/C (dose: 2400.0 mg/kg/injection, schedule: Q04DX003 (sc), vehicle: distilled water + Tween-80) was 94 % of control.
Take `CN(Cc1cnc2nc(N)nc(N)c2n1)c1c(Cl)cc(C(=O)NC(CCC(=O)O)C(=O)O)cc1Cl` (stereo unspecified): the T/C by setting is: (dose: 12.5 mg/kg/injection, schedule: Q01DX010 (sc), vehicle: Klucel (hydroxypropylcellulose) (HPC)) 86 % of control; (dose: 25.0 mg/kg/injection, schedule: Q01DX010 (sc), vehicle: Klucel (hydroxypropylcellulose) (HPC)) 44 % of control; (dose: 50.0 mg/kg/injection, schedule: Q01DX010 (sc), vehicle: Klucel (hydroxypropylcellulose) (HPC)) -25 % of control.
On to `O=S1(=O)C=C(c2ccccc2)C(c2ccccc2)=C1`, for which the T/C runs as follows: under setting [2], 80 % of control; under setting [3], 71 % of control; under setting [4], 83 % of control; under setting [5], 74 % of control.
Turning to `CC(=O)OCC1OC(OC2=C(CC=C(C)C)C(=O)c3ccccc3C2=O)C(OC(C)=O)C(OC(C)=O)C1OC(C)=O` (stereo unspecified), the T/C (dose: 400.0 mg/kg/injection, schedule: Q01DX010 (sc), vehicle: Klucel (hydroxypropylcellulose) (HPC)) is 194 % of control and the T/C (dose: 800.0 mg/kg/injection, schedule: Q01DX010 (sc), vehicle: Klucel (hydroxypropylcellulose) (HPC)) was 52 % of control.
`CC(=O)OCC1(C)NC(=O)c2ccccc2O1` (stereo unspecified): the T/C by setting is: under setting [2], 108 % of control; under setting [3], 108 % of control; under setting [4], 156 % of control; under setting [5], 85 % of control.
For `CCCC(=O)Nc1ncnc2c1ncn2C1OC2COP(=O)(O)OC2C1OC(=O)CCC` (stereo unspecified), the T/C (dose: 200.0 mg/kg/injection, schedule: Q01DX010 (sc), vehicle: saline) was 159 % of control and the T/C (dose: 400.0 mg/kg/injection, schedule: Q01DX010 (sc), vehicle: saline) is 124 % of control.
Regarding `c1ccc(OCC2CO2)c(OCC2CO2)c1` (stereo unspecified), the T/C is, setting by setting: (dose: 150.0 mg/kg/injection, schedule: Q04DX003 (ip), vehicle: saline with Tween-80) 95 % of control; (dose: 300.0 mg/kg/injection, schedule: Q04DX003 (ip), vehicle: saline with Tween-80) 99 % of control.
With `O=C(C#Cc1ccccc1)c1ccccc1`, the T/C (dose: 50.0 mg/kg/injection, schedule: Q04DX003 (sc), vehicle: Klucel (hydroxypropylcellulose) (HPC)) was 76 % of control; the T/C (dose: 100.0 mg/kg/injection, schedule: Q04DX003 (sc), vehicle: Klucel (hydroxypropylcellulose) (HPC)) is 113 % of control; the T/C (dose: 200.0 mg/kg/injection, schedule: Q04DX003 (sc), vehicle: Klucel (hydroxypropylcellulose) (HPC)) was 87 % of control; the T/C under setting [1] was 87 % of control; the T/C (dose: 400.0 mg/kg/injection, schedule: Q04DX003 (sc), vehicle: Klucel (hydroxypropylcellulose) (HPC)) is 42 % of control; the T/C (dose: 600.0 mg/kg/injection, schedule: Q04DX003 (sc), vehicle: Klucel (hydroxypropylcellulose) (HPC)) is 110 % of control. The T/C (dose: 1200.0 mg/kg/injection, schedule: Q04DX003 (sc), vehicle: Klucel (hydroxypropylcellulose) (HPC)) was 104 % of control.
As for `CC(=O)Oc1c(C)[nH]ccc1=O`, the T/C is, setting by setting: (dose: 200.0 mg/kg/injection, schedule: Q04DX003 (sc), vehicle: suspension in saline) 72 % of control; (dose: 400.0 mg/kg/injection, schedule: Q04DX003 (sc), vehicle: suspension in saline) 87 % of control; (dose: 800.0 mg/kg/injection, schedule: Q04DX003 (sc), vehicle: suspension in saline) 79 % of control.
As to `OCCO`, the T/C is 69 % of control (dose: 8.0 % in 0.5 ml injection vol, schedule: Q04DX003 (sc), vehicle: water) and 87 % of control (dose: 16.0 % in 0.5 ml injection vol, schedule: Q04DX003 (sc), vehicle: water).
On to `CSCS(=O)C[C@H](CO)NC(=O)/C=C/c1c(C)[nH]c(=O)[nH]c1=O` (stereo partly specified), for which the T/C (dose: 0.38 mg/kg/injection, schedule: Q04DX003 (sc), vehicle: saline) is 106 % of control and the T/C (dose: 0.75 mg/kg/injection, schedule: Q04DX003 (sc), vehicle: saline) is 97 % of control.
For `CN=C(N)N/N=C(\C)c1ccc2c(c1)Cc1cc(/C(C)=N/NC(N)=NC)ccc1-2`, the T/C (dose: 6.0 mg/kg/injection, schedule: Q04DX003 (sc), vehicle: saline with Tween-80) is 46 % of control; the T/C (dose: 12.0 mg/kg/injection, schedule: Q04DX003 (sc), vehicle: saline with Tween-80) is 84 % of control; the T/C (dose: 24.0 mg/kg/injection, schedule: Q04DX003 (sc), vehicle: saline with Tween-80) was 100 % of control; the T/C (dose: 48.0 mg/kg/injection, schedule: Q04DX003 (sc), vehicle: saline with Tween-80) is 58 % of control.
For the compound `CCC[CH2][Hg][Cl]`, the T/C (dose: 9.38 mg/kg/injection, schedule: Q04DX003 (sc), vehicle: Klucel (hydroxypropylcellulose) (HPC)) was 74 % of control; the T/C (dose: 18.75 mg/kg/injection, schedule: Q04DX003 (sc), vehicle: Klucel (hydroxypropylcellulose) (HPC)) was 61 % of control; the T/C (dose: 37.5 mg/kg/injection, schedule: Q04DX003 (sc), vehicle: Klucel (hydroxypropylcellulose) (HPC)) was 46 % of control.
Regarding `COC(=O)C(Cl)(Cl)N=Nc1c(Cl)cc(Cl)c(C)c1Cl`, the T/C reads like this: under setting [2], 78 % of control; under setting [3], 74 % of control.
With `NC(C(=O)O)c1ccc(CBr)cc1` (stereo unspecified), the T/C (dose: 200.0 mg/kg/injection, schedule: Q04DX003 (sc), vehicle: acid diluted with saline) was 61 % of control; the T/C (dose: 400.0 mg/kg/injection, schedule: Q04DX003 (sc), vehicle: acid diluted with saline) was 92 % of control; the T/C (dose: 800.0 mg/kg/injection, schedule: Q04DX003 (sc), vehicle: acid diluted with saline) is 73 % of control; the T/C (dose: 1600.0 mg/kg/injection, schedule: Q04DX003 (sc), vehicle: acid diluted with saline) was 106 % of control.
Consider `O=C1C(=O)c2cccnc2-c2ncccc21`, for which the T/C (dose: 20.0 mg/kg/injection, schedule: Q04DX003 (sc), vehicle: Klucel (hydroxypropylcellulose) (HPC)) is 60 % of control.
Regarding `CC1(C)OC2C(COC(=O)c3ccc([N+](=O)[O-])cc3)OC(NC(=O)N(CCCl)N=O)C2O1` (stereo unspecified), the T/C is, setting by setting: (dose: 150.0 mg/kg/injection, schedule: Q04DX003 (sc), vehicle: saline with Tween-80) 69 % of control; under setting [4], 9 % of control.
